The target in one assay is Protease (Human immunodeficiency virus 1, UniProt Q9YQ12). As to the kind of experiment: Inhibition of HIV-1 protease.
Assay [1] relates to Human immunodeficiency virus 1. The experiment in a line: Antiviral activity against HIV1 by cell based assay. In kind it is functional, organism-based.
The next assay has as its target Cytochrome P450 2D6 (Homo sapiens, UniProt P10635). The experiment in a line: Inhibition of human CYP2D6.
A further assay addresses Cytochrome P450 2C9 (Homo sapiens, UniProt P11712). As to the kind of experiment: Inhibition of human CYP2C9.
In a further assay the target is Cytochrome P450 2C19 (Homo sapiens, UniProt P33261). As to the kind of experiment: Inhibition of human CYP2C19.
Chain of Cytochrome P450 2C19 (P33261 whole entry): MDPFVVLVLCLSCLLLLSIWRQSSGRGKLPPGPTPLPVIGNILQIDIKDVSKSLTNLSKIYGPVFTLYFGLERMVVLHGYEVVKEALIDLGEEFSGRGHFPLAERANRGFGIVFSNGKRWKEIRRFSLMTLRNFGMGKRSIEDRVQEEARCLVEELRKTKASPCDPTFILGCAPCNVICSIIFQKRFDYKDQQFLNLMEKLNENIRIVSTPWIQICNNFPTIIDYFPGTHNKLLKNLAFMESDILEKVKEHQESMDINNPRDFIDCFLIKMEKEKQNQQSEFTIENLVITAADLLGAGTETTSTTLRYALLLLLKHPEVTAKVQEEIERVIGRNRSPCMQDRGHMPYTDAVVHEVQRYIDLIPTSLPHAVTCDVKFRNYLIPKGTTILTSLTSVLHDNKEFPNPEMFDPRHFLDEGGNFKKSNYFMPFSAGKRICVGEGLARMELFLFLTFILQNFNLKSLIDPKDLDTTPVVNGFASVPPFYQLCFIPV
In a further assay the target is T1, Cytochrome P450 1A2 (Homo sapiens, UniProt P05177).
T1 sequence (P05177 whole entry): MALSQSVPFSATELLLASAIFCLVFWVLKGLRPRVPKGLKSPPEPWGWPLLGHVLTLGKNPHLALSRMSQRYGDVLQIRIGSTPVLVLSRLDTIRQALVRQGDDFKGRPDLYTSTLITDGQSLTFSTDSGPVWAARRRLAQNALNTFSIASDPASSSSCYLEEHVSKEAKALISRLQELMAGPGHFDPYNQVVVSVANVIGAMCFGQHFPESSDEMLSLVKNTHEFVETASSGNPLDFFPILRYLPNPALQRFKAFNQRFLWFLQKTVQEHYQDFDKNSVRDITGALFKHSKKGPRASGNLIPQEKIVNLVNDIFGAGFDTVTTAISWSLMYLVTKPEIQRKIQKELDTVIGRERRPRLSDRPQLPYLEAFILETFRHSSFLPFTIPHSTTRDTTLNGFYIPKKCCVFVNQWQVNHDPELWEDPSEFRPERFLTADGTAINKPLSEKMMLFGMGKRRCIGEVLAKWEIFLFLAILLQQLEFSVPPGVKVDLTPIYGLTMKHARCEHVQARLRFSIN
The experiment in a line: Inhibition of human CYP1A2.

A further assay concerns the target Cytochrome P450 3A4 (Homo sapiens, UniProt P08684). The experiment in a line: Inhibition of human CYP3A4-mediated midazolam 1'-hydroxylase activity.

Chain of Protease (Q9YQ12 whole entry): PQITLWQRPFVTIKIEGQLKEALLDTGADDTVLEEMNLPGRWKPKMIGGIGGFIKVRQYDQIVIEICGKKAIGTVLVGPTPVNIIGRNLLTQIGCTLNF
Chain of Cytochrome P450 2C9 (P11712 whole entry): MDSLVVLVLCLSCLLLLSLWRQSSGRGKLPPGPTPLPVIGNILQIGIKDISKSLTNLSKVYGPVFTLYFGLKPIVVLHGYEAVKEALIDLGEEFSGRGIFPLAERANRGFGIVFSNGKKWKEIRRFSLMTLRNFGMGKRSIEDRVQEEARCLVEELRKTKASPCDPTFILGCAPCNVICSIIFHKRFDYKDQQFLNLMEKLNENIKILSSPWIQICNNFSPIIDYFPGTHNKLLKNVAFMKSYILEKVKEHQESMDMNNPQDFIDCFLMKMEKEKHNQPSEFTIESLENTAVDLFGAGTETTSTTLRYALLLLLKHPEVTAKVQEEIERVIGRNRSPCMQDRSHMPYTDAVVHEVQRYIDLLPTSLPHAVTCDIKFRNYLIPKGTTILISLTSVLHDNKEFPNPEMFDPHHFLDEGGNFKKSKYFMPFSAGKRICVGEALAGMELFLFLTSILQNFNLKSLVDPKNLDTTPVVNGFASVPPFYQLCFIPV
Chain of Cytochrome P450 2D6 (P10635 whole entry): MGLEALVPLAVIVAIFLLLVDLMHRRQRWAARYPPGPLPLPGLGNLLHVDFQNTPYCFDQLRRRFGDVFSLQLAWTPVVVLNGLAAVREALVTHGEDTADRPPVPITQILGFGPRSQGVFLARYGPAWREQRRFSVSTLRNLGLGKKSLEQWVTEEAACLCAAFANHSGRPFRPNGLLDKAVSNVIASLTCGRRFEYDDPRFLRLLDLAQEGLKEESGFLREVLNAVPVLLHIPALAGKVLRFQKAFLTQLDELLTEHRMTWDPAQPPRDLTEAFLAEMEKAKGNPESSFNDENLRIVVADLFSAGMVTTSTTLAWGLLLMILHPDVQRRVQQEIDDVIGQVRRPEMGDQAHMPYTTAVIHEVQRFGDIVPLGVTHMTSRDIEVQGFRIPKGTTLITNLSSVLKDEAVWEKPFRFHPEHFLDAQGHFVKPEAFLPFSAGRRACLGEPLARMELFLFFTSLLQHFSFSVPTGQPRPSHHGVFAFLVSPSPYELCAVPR
Chain of Cytochrome P450 3A4 (P08684 whole entry): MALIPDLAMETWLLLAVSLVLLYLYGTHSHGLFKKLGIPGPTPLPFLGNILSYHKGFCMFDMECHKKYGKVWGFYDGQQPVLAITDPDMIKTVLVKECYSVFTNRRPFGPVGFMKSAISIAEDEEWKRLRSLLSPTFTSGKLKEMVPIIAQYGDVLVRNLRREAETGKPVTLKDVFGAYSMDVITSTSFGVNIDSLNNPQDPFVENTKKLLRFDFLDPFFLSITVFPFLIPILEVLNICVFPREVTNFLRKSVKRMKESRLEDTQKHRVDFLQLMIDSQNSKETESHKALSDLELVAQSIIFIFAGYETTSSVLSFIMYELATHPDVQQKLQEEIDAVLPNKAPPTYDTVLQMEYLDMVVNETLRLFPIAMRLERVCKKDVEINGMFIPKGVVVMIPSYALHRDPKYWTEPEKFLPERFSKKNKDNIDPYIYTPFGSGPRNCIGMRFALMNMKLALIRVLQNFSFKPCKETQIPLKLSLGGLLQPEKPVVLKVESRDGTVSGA

The term IC50 denotes the point on the concentration scale where inhibition reaches its midpoint. A lower IC50 goes with higher potency. A word on the EC50: it is the concentration at which the effect is half-maximal. On to `CC(C)CN(CC[C@H](Cc1ccccc1)NC(=O)[C@H](CCN1CCOCC1)NC(=O)N(C)Cc1csc(C(C)C)n1)C(=O)OCc1cncs1`, for which the half-maximal inhibitory concentration (IC50) against Protease was above 30 µM. The concentration giving a half-maximal response (EC50) in assay [1] is above 30 µM.

On to `CC(C)c1nc(CN(C)C(=O)N[C@@H](CCN2CCOCC2)C(=O)N[C@H](CCN(Cc2ccc(Cl)cc2)C(=O)OCc2cncs2)Cc2ccccc2)cs1`, for which the IC50 at Protease is above 30 µM. Besides, the EC50 in assay [1] is above 30 µM.

Turning to `CC(C)c1nc(CN(C)C(=O)N[C@H](C(=O)NCCCNC(=O)OCc2cncs2)C(C)C)cs1`, the EC50 in assay [1] was above 30 µM.

On to `CC(C)c1nc(CN(C)C(=O)N[C@H](C(=O)N[C@@H](CC[C@@H](Cc2ccccc2)NC(=O)OCc2cncs2)Cc2ccccc2)C(C)C)cs1`, for which the IC50 at Cytochrome P450 2D6 was 0.4 µM; at Cytochrome P450 2C9, 13.8 µM; against Cytochrome P450 2C19, above 5 µM; at Cytochrome P450 1A2, 10 µM; on Protease, above 30 µM. In assay [1], this compound registered a 50% effective concentration (EC50) above 30 µM.

For the compound `CC(C)c1nc(CN(C)C(=O)N[C@H](C(=O)N(C)[C@H](CC[C@H](Cc2ccccc2)NC(=O)OCc2cncs2)Cc2ccccc2)C(C)C)cs1`, the half-maximal effective concentration (EC50) in assay [1] was determined as 0.73 µM.

As for `CC(C)CN(CC[C@H](Cc1ccccc1)NC(=O)OCc1cncs1)C(=O)[C@H](CCN1CCOCC1)NC(=O)N(C)Cc1csc(C(C)C)n1`, the IC50 at Cytochrome P450 2D6 was 8.1 µM; against Cytochrome P450 2C9, above 25 µM; at Cytochrome P450 2C19 it was above 25 µM; on Cytochrome P450 1A2, above 25 µM; against Protease, above 30 µM. This compound returned a concentration giving a half-maximal response (EC50) in assay [1] above 30 µM.

The compound `CC(C)c1nc(CN(C)C(=O)N[C@H](C(=O)N2CCC(NC(=O)OCc3cncs3)CC2)C(C)C)cs1` had an EC50 in assay [1] of 4 µM.

Take `CC(C)c1nc(CN(C)C(=O)N[C@H](C(=O)N(CCCCN(Cc2ccccc2)C(=O)OCc2cncs2)Cc2ccccc2)C(C)C)cs1`: the concentration for half-maximal inhibition (IC50) on Cytochrome P450 2D6 was 1.1 µM; against Cytochrome P450 2C9 it was 3.4 µM; on Cytochrome P450 2C19, 1.5 µM; against Cytochrome P450 1A2, above 25 µM; against Protease, 22.7 µM; at Cytochrome P450 3A4, 0.24 µM. For the same compound, in assay [1], the 50% effective concentration (EC50) is above 30 µM.

Turning to `CC(C)c1nc(CN(C)C(=O)N[C@H](C(=O)NC2CCN(C(=O)OCc3cncs3)CC2)C(C)C)cs1`, the midpoint of the response in assay [1], the EC50, lay at 9 µM. On Cytochrome P450 3A4, this compound registered a concentration for half-maximal inhibition (IC50) of 1.67 µM.

Compound `CC(C)c1nc(CN(C)C(=O)N[C@H](C(=O)N[C@H](CCN(Cc2ccccc2)NC(=O)OCc2cncs2)Cc2ccccc2)C(C)C)cs1` had an IC50 on Protease of 0.03 µM. The midpoint of the response in assay [1], the EC50, lay at 0.38 µM.

On Protease, `CC(C)c1nc(CN(C)C(=O)N[C@H](C(=O)N[C@H](CCNNC(=O)OCc2cncs2)Cc2ccccc2)C(C)C)cs1` came in with a half-inhibitory concentration (IC50) of 8.8 µM. This compound also showed a concentration for a half-maximal effect (EC50) in assay [1] above 30 µM.

In assay [1], `CC(C)c1nc(CN(C)C(=O)N[C@H](C(=O)N[C@@H](Cc2ccccc2)[C@H]2OC(C)(C)O[C@@H]2[C@H](Cc2ccccc2)NC(=O)OCc2cncs2)C(C)C)cs1` had an EC50 above 30 µM. The compound also had a 50% inhibitory concentration (IC50) on Cytochrome P450 3A4 of 0.31 µM.

On to `CC(C)c1nc(CN(C)C(=O)N[C@H](C(=O)N[C@H](CC(=O)[C@H](Cc2ccccc2)NC(=O)OCc2cncs2)Cc2ccccc2)C(C)C)cs1`, for which the concentration giving a half-maximal response (EC50) in assay [1] turned out to be 1.65 µM.

In turn, `CC(C)c1nc(CN(C)C(=O)N[C@H](C(=O)N[C@H](CC[C@H](Cc2ccccc2)N(C)C(=O)OCc2cncs2)Cc2ccccc2)C(C)C)cs1` had a concentration giving a half-maximal response (EC50) in assay [1] of 0.87 µM.

Consider `CC(C)c1nc(CN(C)C(=O)N[C@H](C(=O)N[C@H](CCN(Cc2ccccc2)C(=O)OCc2cncs2)Cc2ccccc2)C(C)C)cs1`, for which the IC50 was 0.9 µM against Cytochrome P450 2D6; above 25 µM at Cytochrome P450 2C9; above 25 µM on Cytochrome P450 2C19; above 25 µM against Cytochrome P450 1A2; 0.32 µM on Cytochrome P450 3A4. The compound also gave an EC50 in assay [1] above 30 µM.

For `CC(C)c1nc(CN(C)C(=O)N[C@H](C(=O)N[C@@H](C)CC[C@H](C)NC(=O)OCc2cncs2)C(C)C)cs1`, the concentration for half-maximal inhibition (IC50) at Protease was above 30 µM. In addition, the 50% effective concentration (EC50) in assay [1] was above 30 µM.

For the compound `CC(C)c1nc(CN(C)C(=O)N[C@H](C(=O)N[C@H](CC[C@H](Cc2ccccc2)NC(=O)OCc2cncs2)Cc2ccccc2)C(C)C)cs1`, the IC50 was 2.9 µM against Cytochrome P450 2D6; 6.8 µM against Cytochrome P450 2C9; 9.3 µM against Cytochrome P450 2C19; above 25 µM against Cytochrome P450 1A2; 0.005 µM against Protease. For the same compound, the 50% effective concentration (EC50) in assay [1] came out at 0.29 µM.

Turning to `CC(C)c1nc(CN(C)C(=O)N[C@H](C(=O)N(CCCN(Cc2ccccc2)C(=O)OCc2cncs2)Cc2ccccc2)C(C)C)cs1`, the concentration for half-maximal inhibition (IC50) on Protease amounted to 21 µM; against Cytochrome P450 3A4, 0.3 µM. Further, the EC50 in assay [1] is above 30 µM.

For `CC(C)c1nc(CN(C)C(=O)N[C@@H](CCN2CCOCC2)C(=O)NC(Cc2ccccc2)CN(Cc2ccccc2)C(=O)OCc2cncs2)cs1` (stereo not given in full), the 50% inhibitory concentration (IC50) against Protease was above 30 µM. For the same compound, the EC50 in assay [1] is above 30 µM.

The compound `CC(C)c1nc(CN(C)C(=O)N[C@H](C(=O)N2CCN(C(=O)OCc3cncs3)CC2)C(C)C)cs1` gave an EC50 in assay [1] above 30 µM. On Cytochrome P450 3A4, this compound had an IC50 of 1.4 µM.

On to `CC(C)c1nc(CN(C)C(=O)N[C@H](C(=O)NCCNC(=O)OCc2cncs2)C(C)C)cs1`, for which, in assay [1], the 50% effective concentration (EC50) was above 30 µM.

For `CCC[C@@H](CC[C@H](Cc1ccccc1)NC(=O)OCc1cncs1)NC(=O)[C@@H](NC(=O)N(C)Cc1csc(C(C)C)n1)C(C)C`, in assay [1], a half-maximal response (EC50) required 0.55 µM.

With `CC(C)c1nc(CN(C)C(=O)N[C@H](C(=O)N[C@H](/C=C/[C@H](Cc2ccccc2)NC(=O)OCc2cncs2)Cc2ccccc2)C(C)C)cs1`, the midpoint of the response in assay [1], the EC50, lay at 11 µM. On Cytochrome P450 3A4, this compound came in with an IC50 of 0.15 µM.

On Protease, `CC(C)c1nc(CN(C)C(=O)N[C@@H](CCN2CCOCC2)C(=O)N[C@H](CCN(Cc2ccccc2Cl)C(=O)OCc2cncs2)Cc2ccccc2)cs1` had an IC50 above 30 µM. In assay [1], this compound yielded an EC50 above 30 µM.

At Protease, `CC[C@@H](CC[C@H](CC)NC(=O)[C@@H](NC(=O)N(C)Cc1csc(C(C)C)n1)C(C)C)NC(=O)OCc1cncs1` came in with a half-maximal inhibitory concentration (IC50) above 30 µM. In assay [1], this compound showed an EC50 above 30 µM.

Turning to `CC(C)c1nc(CN(C)C(=O)N[C@H](C(=O)N[C@@H](Cc2ccccc2)[C@H](Cc2ccccc2)NC(=O)OCc2cncs2)C(C)C)cs1`, the half-inhibitory concentration (IC50) against Cytochrome P450 2D6 was 2.3 µM; against Cytochrome P450 2C9 it was above 25 µM; against Cytochrome P450 2C19 it was 8.7 µM; on Cytochrome P450 1A2 it was 22.9 µM; against Protease it was above 30 µM. Also, the EC50 in assay [1] was above 30 µM.

Take `CC(C)c1nc(CN(C)C(=O)N[C@@H](CCN2CCOCC2)C(=O)N[C@H](CCN(Cc2ccccc2)C(=O)OCc2cncs2)Cc2ccccc2)cs1`: the IC50 on Cytochrome P450 2D6 is 1.3 µM; against Cytochrome P450 2C9 it was 8.1 µM; on Cytochrome P450 2C19 it was 6.7 µM; against Cytochrome P450 1A2, above 25 µM; against Protease, above 30 µM. In addition, the concentration for a half-maximal effect (EC50) in assay [1] was above 30 µM.

In assay [1], `CCC[C@@H](CC[C@H](Cc1ccccc1)NC(=O)[C@@H](NC(=O)N(C)Cc1csc(C(C)C)n1)C(C)C)NC(=O)OCc1cncs1` displayed a concentration giving a half-maximal response (EC50) of 1.7 µM. This counts as single-digit micromolar.

In assay [1], `CC(C)c1nc(CN(C)C(=O)N[C@H](C(=O)N[C@@H](Cc2ccccc2)C[C@H](O)[C@H](Cc2ccccc2)NC(=O)OCc2cncs2)C(C)C)cs1` [RITONAVIR] returned a half-maximal effective concentration (EC50) of 0.015 µM.

For `CC(C)c1nc(CN(C)C(=O)N[C@H](C(=O)NCCCCNC(=O)OCc2cncs2)C(C)C)cs1`, the concentration for a half-maximal effect (EC50) in assay [1] was above 30 µM.

(Values after ChEMBL document CHEMBL3112589, “Structure-activity relationships of diamine inhibitors of cytochrome P450 (CYP) 3A as novel pharmacoenhancers, part I: core region” (Bioorg Med Chem Lett, 2014).)
